# Measured values reported in US20110275672A1, “METHODS FOR TREATING CANCERS USING POLYMORPHIC FORMS OF 3-(4-AMINO-1-OXO-1,3 DIHYDRO-ISOINDOL-2-YL)-PIPERIDINE-2,6-DIONE” (Celgene Corporation, priority 2003, published 2011).
# Where “and” joins values, the source holds several entries; their conditions need not be identical. Equal entries are not always repeated. Where two headings read alike, the source gives them in different places.
# How the values were obtained:
# TNF-α production [1] = experiment: Inhibition of TNF-α production following LPS-stimulation of human PBMC; format: cell-based
# MM.1S cells = experiment: Inhibition of MM cell proliferation, [3H]-thymidine uptake, MM.1S; format: cell-based; settings: for IC50: Homo sapiens, MM1.S
# Protocol: (§1) The uptake of [^3H]-thymidine by different MM cell lines (MM.1S, Hs Sultan, U266 and RPMI-8226) was measured as an indicator of the cell proliferation.
# (§2) Uptake [^3H]-thymidine by different MM cell lines (MM.1S, Hs Sultan, U266 and RPMI-8226) was measured as an indicator of cell proliferation. Cells were incubated in the presence of compounds for 48 hours; [^3H]-thymidine was included for the last 8 hours of the incubation period.
# Hs Sultan cells = experiment: Inhibition of MM cell proliferation, [3H]-thymidine uptake, Hs Sultan; format: cell-based
# Protocol: as §1, §2
# T-cells = experiment: Stimulation of T-cell proliferation following primary induction by T-cell receptor (TCR) activation; format: cell-based
# IL-2 = experiment: Augmentation of IL-2 production following TCR activation of PBMC; format: cell-based
# IFN-γ = experiment: Augmentation of IFN-γ production following TCR activation of T-cells; format: cell-based
# [2] = LPS-stimulated production of IL-113 by PBMC; format: cell-based
# IL-6 = experiment: LPS-stimulated production of IL-6 by PBMC; format: cell-based
# IL-10 = experiment: LPS-stimulated production of IL-10 by PBMC; format: cell-based
# [3] = Cardiovascular and respiratory function in anesthetized dogs; format: in vivo, Beagle dogs
# Source text: Two groups of Beagle dogs (2/sex/group) are used.
# [4] = Phase 1 studies in refractory or relapsed multiple myeloma patients: pharmacokinetics; format: in vivo
# Protocol: (§3) Patients started 3-(4-amino-1-oxo-1,3-dihydro-isoindol-2-yl) -piperidine -2,6-dione treatment at 5 mg/day with subsequent escalation to 10, 25, and 50 mg/day. […] Patients were evaluated for adverse events at each visit and the severity of these events was graded according to the National Cancer Institute (NCI) Common Toxicity Criteria. Patients were discontinued if they experienced DLT (Grade 3 or greater non-hematological, or Grade 4 hematological toxicity).
# Blood and urine samples were collected for analysis of pharmacokinetic parameters on Days 1 and 28. Blood samples were collected according to the following sampling schedule: pre-dose, 0.25, 0.5, 0.75, 1, 1.5, 2, 2.5, 3, 4, 6, 8, 10, 12, 18, and 24 hours post-dose. In addition, a blood sample was collected at each weekly clinic visit for 3-(4-amino-1-oxo-1,3-dihydro-isoindol-2-yl)-piperidine-2,6-dione determination. Total urine was collected and pooled according to the following time intervals post-dose: 0 to 4, 4 to 8, 8 to 12, and 12 to 24 hours. […] Bone marrow aspirations and/or tissue biopsy are also performed at Months 3, 6 and 12 if a patient's paraprotein serum concentration or 24-hour urine protein excretion declined to the next lower level, based on best response criteria.
# [5] = Phase 1 studies in refractory or relapsed multiple myeloma patients: dose limiting toxicity; format: in vivo
# Protocol: as §3
# The second cohort of 3 patients subsequently commenced therapy at 10 mg/day.
# [6] = Phase 1 study in patients with solid tumors: dose limiting toxicity; format: in vivo; settings: initial group of 20 patients with solid tumors, 5 escalated to 50 mg/day over 4 weeks
# Protocol: Patients who, experienced clinical benefit were permitted to continue on treatment as Named Patients.
# The study initially enrolled 20 patients and was subsequently amended to enroll 16 additional patients (adrenal carcinoma, NSCLC, malignant mesothelioma, breast cancer, metastatic melanoma (8), renal cell cancer (4)) at a higher dose. The 16 additional patients were given weekly escalating doses of 25 mg/day, 50 mg/day, 75 mg/day, 100 mg/day, 125 mg/day, and 150 mg/day over a 6-week period with continuing treatment for an additional six weeks.
# The study design dictates that at least 3 patients must be enrolled at a dose level and have completed 28 days of treatment prior to enrollment of patients at the next higher dose level. […] Patients will be escalated to 10, 20, 25, and 30 mg/day provided there is no toxicity.
# If, at any given dose level in either study, one out of three patients experiences toxicity, three additional patients must be treated at that particular dose. If, however, two out of six patients experience DLT, the MTD is judged to have been exceeded. No further dose escalations are to occur and additional patients are to be enrolled at the previous dose level. The dose of 3-(4-amino-l-oxo-1,3-dihydro-isoindol-2-yl)-piperidine-2,6-dione administered is escalated until the MTD is achieved or the maximum daily dose […] is reached.
# metastatic melanoma = experiment: Treatment of metastatic melanoma patients; format: in vivo, human
# Protocol: The dose was then increased every seven days to 10 mg/day, 25 mg/day, and 50 mg/day, respectively, for a total of four weeks on therapy.
# TNF-α production [7] = settings: human PBMC, cited from earlier work; for IC50: LPS, read-out: IC50 for inhibiting production of TNF-α following LPS-stimulation of PBMC
# TNF-α production [8] = settings: cited from earlier work; for IC50: human whole blood, LPS, read-out: IC50 for inhibiting production of TNF-α following LPS-stimulation of human whole blood
# [9] = Pharmacokinetics of Actimid in relapsed/refractory multiple myeloma patients; format: in vivo, human
# Protocol: 6.5.1 Treatment of Relapsed Multiple Myeloma p 4-(Amino)-2-(2,6-dioxo(3-piperidyl))-isoindoline-1,3-dione (Actimid™) was administered to patients with relapsed/refractory multiple myeloma. The study was conducted in compliance with Good Clinical Practices. Patients were at least 18 years old, had been diagnosed with multiple myeloma (with paraprotein in serum and/or urine), and were considered refractory to treatment after at least two cycles of treatment, or have relapsed after two cycles of treatment.
# Patients who have progressive disease, according to the Southwest Oncology Group (SWOG) criteria, on their prior regimen are considered treatment refractory. Relapse following remission is defined as >25% increase in M component from baseline levels; reappearance of the M paraprotein that had previously disappeared; or a definite increase in the size and number of lytic bone lesions recognized on radiographs. Patients may have had prior therapy with thalidomide, provided they were able to tolerate the treatment. A Zubrod performance status of 0 to 2 is required for all patients.
# 4-(Amino)-2-(2,6-dioxo(3-piperidyl))-isoindoline-1,3-dione is administered to patients at doses of 1, 2, 5, or 10 mg/day for up to four weeks; at each dose level, three patients are initially enrolled. Dosing occurs at approximately the same time each morning; all doses are administered in the fasted state (no eating for at least two hours prior to dosing and two hours after dosing). 4-(Amino)-2-(2,6-dioxo(3-piperidyl))-isoindoline-1,3-dione doses are administered in an ascending fashion such that patients in the first cohort receive the lowest dose of 4-(amino)-2-(2,6-dioxo(3-piperidyl))-isoindoline-1,3-dione (1 mg/day) and escalation to the next higher dose level occurs only following the establishment of safety and tolerability at the current dose. If one out of three patients at any dose level experience dose limiting toxicity (DLT), three additional patients are enrolled at that dose. If none of the three additional patients experience DLT, escalation to the next dose level occurs; dose escalations continue in a similar fashion until the MTD is established or the maximum daily dose (10 mg/day) is attained. However, if one of the three additional patients enrolled experiences DLT, the MTD has been reached. If two or more of the three additional patients enrolled experience DLT, the MTD is judged to have been exceeded and three additional patients are enrolled at the preceding dose level to confirm the MTD. Once the MTD has been identified, four additional patients are enrolled at that dose level so that a total of 10 patients is treated at the MTD.
# Blood sampling for analysis of pharmacokinetic parameters is performed on Days 1 and 28 according to the following sampling schedule: pre-dose, 0.25, 0.5, 0.75, 1, 1.5, 2, 2.5, 3, 4, 6, 8, 10, 12, 18, and 24 hours post-dose. An additional blood sample is collected at each weekly visit for the determination of 4-(amino)-2-(2,6-dioxo(3-piperidyl))-isoindoline-1,3-dione levels. Total urine collections are also made with urine pooled according to the following time intervals post-dose: 0 to 4, 4 to 8, 8 to 12, and 12 to 24 hours. Safety assessments are made by monitoring adverse events, vital signs, ECGs, clinical laboratory evaluations (blood chemistry, hematology, lymphocyte phenotyping, and urinalysis), and physical examination at specific times during the study.
compound,measurement,setting,value
"Nc1cccc2c1CN(C1CCC(=O)NC1=O)C2=O (centres unmarked) [3-(4-amino-1-oxo-1,3-dihydro-isoindol-2-yl)-piperidine-2,6-dione]",LPS-stimulated production of TNF-α by PBMC,TNF-α production [1],dose-dependent inhibition
same,IC50,"MM.1S cells; read-out: concentration resulting in 50% inhibition of cell proliferation, MM.1S cells, 48 hours, [3H]-thymidine last 8 hours",400 nM
same,IC50,"Hs Sultan cells; read-out: concentration resulting in 50% inhibition of cell proliferation, 48 hours, [3H]-thymidine last 8 hours",1000 nM
same,times more potent than thalidomide in stimulating the proliferation of T-cells,T-cells,50-100 times
same,times more potent than thalidomide in augmenting the production of IL-2,IL-2,50-100 times
same,times more potent than thalidomide in augmenting the production of IFN-γ,IFN-γ,50-100 times
same,LPS-stimulated production of IL-113 by PBMC,[2],dose-dependent inhibition
same,LPS-stimulated production of IL-6 by PBMC,IL-6,dose-dependent inhibition
same,production of the anti-inflammatory cytokine IL-10,IL-10,increased production
same,cardiovascular and respiratory changes compared to the vehicle control group,"[3]; anesthetized Beagle dogs, all doses (2, 10, and 20 mg/kg), infusion through the jugular vein",minimal
same,increase in arterial blood pressure at higher doses,"[3]; anesthetized dogs, higher doses (10, 20 mg/kg)",not seen at higher doses
same,duration of the increase in arterial blood pressure,"[3]; anesthetized dogs, low dose",approximately 15 minutes
same,arterial blood pressure after small increase (from 94 mmHg),"[3]; anesthetized dogs, low dose (2 mg/kg), infusion",101 mmHg
same,"deviations in femoral blood flow, respiratory parameters, and Qtc interval","[3]; anesthetized dogs, common to control and treated groups",not considered treatment-related
same,accumulation with multiple dosing,"[4]; human, in vivo",no evidence of accumulation
same,"half-live in patients, mean","[4]; human, in vivo",8 h
same,"half-live in patients, range","[4]; human, in vivo",up to 17 hours
same,plasma concentration profile,"[4]; human, in vivo",double peaks were observed
same,clearance compared to healthy volunteers,[4]; multiple myeloma patients,lower
same,exposure (Cmax and AUC) compared to healthy male volunteers,[4]; multiple myeloma patients,slightly higher
same,dose limiting toxicity (DLT),"[5]; 5 mg/day for 28 days, first cohort of 3 patients",without any dose limiting toxicity
same,tolerability,"[5]; 10 mg/day, second cohort of 3 patients",tolerated treatment well
same,DLTs,[6],No DLTs were reported
same,patients showing disease stabilization or a partial response,"metastatic melanoma; first four weeks of treatment, 5 escalated weekly to 10, 25, 50 mg/day",Five of the 13
same,duration of response,metastatic melanoma; metastatic melanoma patients,approximately six
same,tumor response in cutaneous and subcutaneous lesions,metastatic melanoma; metastatic melanoma patients,five
same,tumor response in liver,metastatic melanoma; metastatic melanoma patients,one
same,tumor response in lymph nodes,metastatic melanoma; metastatic melanoma patients,two
same,IC50,TNF-α production [7],~100 nM
same,IC50 for inhibiting production of TNF-α following LPS-stimulation of PBMC,TNF-α production [7],0.0259 µg/mL
same,IC50 for inhibiting production of TNF-α following LPS-stimulation of human whole blood,TNF-α production [8],0.1036 µg/mL
same,IC50,TNF-α production [8],~480 nM
"Nc1cccc2c1C(=O)N(C1CCC(=O)NC1=O)C2=O (centres unmarked) [Actimid, 4-(Amino)-2-(2,6-dioxo(3-piperidyl))-isoindoline-1,3-dione]",IC50,"MM.1S cells; read-out: concentration achieving 50% inhibition of proliferation, MM.IS cells",0.00273 µg/mL to 0.0273 µg/mL and 10 nM to 100 nM
same,IC50,Hs Sultan cells; read-out: concentration achieving 50% inhibition of proliferation,0.00273 µg/mL to 0.0273 µg/mL and 10 nM to 100 nM
same,fold increase in AUC(01) with a 5-fold increase in dose,[9]; Day 1,3.6 fold
same,fold increase in Cmax with a five-fold higher dose,[9]; Day 1,3.2 fold
same,fold increase in AUC(01) with a 5-fold increase in dose,[9]; Week 4,2.3 fold
same,fold increase in Cmax with a five-fold higher dose,[9]; Week 4,2.2 fold
same,absorption,"[9]; all dose levels, relapsed multiple myeloma patients",steadily absorbed
same,decline of plasma concentrations after reaching Cmax,"[9]; human, in vivo",monophasic manner
same,median Tmax,"[9]; human, in vivo",3 to 4 h
same,CL/F,"[9]; human, in vivo, 1 mg",114.75 mL/min
same,CL/F,"[9]; human, in vivo, 2 mg",121.43 mL/min
same,CL/F,"[9]; human, in vivo, 5 mg",182.31 mL/min
same,t½,"[9]; human, in vivo, 5 mg",6.5 h
same,IC50,TNF-α production [7],~24 nM
same,IC50 for inhibiting production of TNF-α following LPS-stimulation of PBMC,TNF-α production [7],0.00655 µg/mL
same,IC50 for inhibiting production of TNF-α following LPS-stimulation of human whole blood,TNF-α production [8],0.00683 µg/mL
same,IC50,TNF-α production [8],~25 nM
"O=C1CCC(N2C(=O)c3ccccc3C2=O)C(=O)N1 (centres unmarked) [thalidomide, reference compound]",inhibition of cell proliferation,"MM.1S cells; MM.1S cells, concentrations up to 100 μm, 48 hours",15%
same,inhibition of cell proliferation,"Hs Sultan cells; concentrations up to 100 μm, 48 hours",20%
same,IC50,TNF-α production [7],~194000 nM
same,IC50 for inhibiting production of TNF-α following LPS-stimulation of PBMC,TNF-α production [7],50.2 µg/mL
